Test results reported in patent publication US10266537B2, “3-acetylenyl-pyrazole-pyrimidine derivative, and preparation method therefor and uses thereof” (Si Chuan University, priority 2015, dated 2019).
Where two headings read alike, the source gives them in different places. Each block holds one compound with its values, some of them ahead of it.

Columns and labels:
ErbB2 = ErbB2 (Homo sapiens (Human), UniProt P04626); assay: Kinase inhibition assay (KinaseProfiler, 33P-ATP); type: biochemical; details: for remaining activity at 10 µM: ErbB2(h), read-out: The percentage of the remaining active protein; for IC50: ErbB2, ATP at Km
SW1990 = assay: Cell proliferation inhibition assay (MTT); type: cell-based; details: Homo sapiens; SW1990; MTT, 72 hours; read-out: Proliferation inhibitory activity IC50
MDA-MB-231 = assay: Cell proliferation inhibition assay (MTT); type: cell-based, human; details: Homo sapiens, MDA-MB-231, MTT, 72 hours
IKKβ = IKKβ (Homo sapiens (Human), UniProt O14920); assay: Kinase inhibition assay (KinaseProfiler, 33P-ATP); type: biochemical; details: IKKβ(h), read-out: The percentage of the remaining active protein
Fer(h) = Fer(h) (Homo sapiens (Human), UniProt P16591); assay: Kinase inhibition assay (KinaseProfiler, 33P-ATP); type: biochemical; details: read-out: The percentage of the remaining active protein
MDA-MB-435 = assay: Cell proliferation inhibition assay (MTT); type: cell-based, human; details: Homo sapiens, MDA-MB-435, MTT, 72 hours
MAPK1(h) = assay: Kinase inhibition assay (KinaseProfiler, 33P-ATP); type: biochemical, human
A375 = assay: Cell proliferation inhibition assay (MTT); type: cell-based; details: Homo sapiens, A-375; A375; MTT, 72 hours; read-out: Proliferation inhibitory activity IC50
MDA-MB-468 = assay: Cell proliferation inhibition assay (MTT); type: cell-based; details: Homo sapiens; MDA-MB-468; MTT, 72 hours; read-out: Proliferation inhibitory activity IC50
ARK5(h) = ARK5(h) (Homo sapiens (Human), UniProt O60285); assay: Kinase inhibition assay (KinaseProfiler, 33P-ATP); type: biochemical; details: read-out: The percentage of the remaining active protein
PKCα(h) = PKCα(h) (Homo sapiens (Human), UniProt P17252); assay: Kinase inhibition assay (KinaseProfiler, 33P-ATP); type: biochemical; details: read-out: The percentage of the remaining active protein
EphA8(h) = EphA8(h) (Homo sapiens (Human), UniProt P29322); assay: Kinase inhibition assay (KinaseProfiler, 33P-ATP); type: biochemical; details: read-out: The percentage of the remaining active protein
RIPK2(h) = RIPK2(h) (Homo sapiens (Human), UniProt O43353); assay: Kinase inhibition assay (KinaseProfiler, 33P-ATP); type: biochemical; details: read-out: The percentage of the remaining active protein
ALK(h) = ALK(h) (Homo sapiens (Human), UniProt Q9UM73); assay: Kinase inhibition assay (KinaseProfiler, 33P-ATP); type: biochemical; details: read-out: The percentage of the remaining active protein
Miapaca-2 = assay: Cell proliferation inhibition assay (MTT); type: cell-based; details: Homo sapiens, MIA PaCa-2; Miapaca-2; MTT, 72 hours; read-out: Proliferation inhibitory activity IC50
PKA(h) = PKA(h) (Homo sapiens (Human), UniProt P17612); assay: Kinase inhibition assay (KinaseProfiler, 33P-ATP); type: biochemical; details: read-out: The percentage of the remaining active protein
Fms(h) = Fms(h) (Homo sapiens (Human), UniProt P07333); assay: Kinase inhibition assay (KinaseProfiler, 33P-ATP); type: biochemical; details: read-out: The percentage of the remaining active protein
c-Src(T341M) = c-Src(T341M) (Homo sapiens (Human), UniProt P12931, T341M); assay: Kinase inhibition assay (KinaseProfiler, 33P-ATP); type: biochemical
HepG2 = assay: Cell proliferation inhibition assay (MTT); type: cell-based; details: Homo sapiens, 72 hours, read-out: Proliferation inhibitory activity IC50
plc/prf/5 = assay: Cell proliferation inhibition assay (MTT); type: cell-based; details: Homo sapiens, 72 hours, read-out: Proliferation inhibitory activity IC50
EphB2 = EphB2 (Homo sapiens (Human), UniProt P29323); assay: Kinase inhibition assay (KinaseProfiler, 33P-ATP); type: biochemical; details: for remaining activity at 10 µM: EphB2(h), read-out: The percentage of the remaining active protein; for IC50: EphB2, ATP at Km
Itk(h) = Itk(h) (Homo sapiens (Human), UniProt Q08881); assay: Kinase inhibition assay (KinaseProfiler, 33P-ATP); type: biochemical; details: read-out: The percentage of the remaining active protein
CDK7 = CDK7 (Homo sapiens (Human), UniProt P50613); assay: Kinase inhibition assay (KinaseProfiler, 33P-ATP); type: biochemical; details: read-out: The percentage of the remaining active protein
KDR = KDR (Homo sapiens (Human), UniProt P35968); assay: Kinase inhibition assay (KinaseProfiler, 33P-ATP); type: biochemical; details: for remaining activity at 10 µM: KDR(h), read-out: The percentage of the remaining active protein
B-Raf = B-Raf (Homo sapiens (Human), UniProt P15056); assay: Kinase inhibition assay (KinaseProfiler, 33P-ATP); details: for remaining activity at 10 µM: read-out: The percentage of the remaining active protein
Fyn = Fyn (Homo sapiens (Human), UniProt P06241); assay: Kinase inhibition assay (KinaseProfiler, 33P-ATP); type: biochemical; details: for remaining activity at 10 µM: Fyn(h), read-out: The percentage of the remaining active protein; for IC50: Fyn, ATP at Km
FGFR1 = FGFR1 (Homo sapiens (Human), UniProt P11362); assay: Kinase inhibition assay (KinaseProfiler, 33P-ATP); type: biochemical; details: FGFR1(h), read-out: The percentage of the remaining active protein
mTOR(h) = mTOR(h) (Homo sapiens (Human), UniProt P42345); assay: Kinase inhibition assay (KinaseProfiler, 33P-ATP); type: biochemical; details: read-out: The percentage of the remaining active protein
JAK3(h) = JAK3(h) (Homo sapiens (Human), UniProt P52333); assay: Kinase inhibition assay (KinaseProfiler, 33P-ATP); type: biochemical; details: read-out: The percentage of the remaining active protein
JNK1α1(h) = JNK1α1(h) (Homo sapiens (Human), UniProt P45983); assay: Kinase inhibition assay (KinaseProfiler, 33P-ATP); type: biochemical; details: read-out: The percentage of the remaining active protein
Blk = Blk (Homo sapiens (Human), UniProt P51451); assay: Kinase inhibition assay (KinaseProfiler, 33P-ATP); type: biochemical; details: for remaining activity at 10 µM: Blk(h), read-out: The percentage of the remaining active protein
RAMOS = assay: Cell proliferation inhibition assay (MTT); type: cell-based; details: Homo sapiens; RAMOS; MTT, 72 hours; read-out: Proliferation inhibitory activity IC50
Abl = Abl (Homo sapiens (Human), UniProt P00519); assay: Kinase inhibition assay (KinaseProfiler, 33P-ATP); type: biochemical; details: Abl(h); 10 μM; read-out: The percentage of the remaining active protein
[1] = read-out: Proliferation inhibitory activity IC50
[2] = read-out: Proliferative inhibitory activity MDA-MB-231 (IC50 class)
[3] = read-out: Proliferative inhibitory activity MDA-MB-435 (IC50 class)

Sequence of KDR (P35968 20-1356): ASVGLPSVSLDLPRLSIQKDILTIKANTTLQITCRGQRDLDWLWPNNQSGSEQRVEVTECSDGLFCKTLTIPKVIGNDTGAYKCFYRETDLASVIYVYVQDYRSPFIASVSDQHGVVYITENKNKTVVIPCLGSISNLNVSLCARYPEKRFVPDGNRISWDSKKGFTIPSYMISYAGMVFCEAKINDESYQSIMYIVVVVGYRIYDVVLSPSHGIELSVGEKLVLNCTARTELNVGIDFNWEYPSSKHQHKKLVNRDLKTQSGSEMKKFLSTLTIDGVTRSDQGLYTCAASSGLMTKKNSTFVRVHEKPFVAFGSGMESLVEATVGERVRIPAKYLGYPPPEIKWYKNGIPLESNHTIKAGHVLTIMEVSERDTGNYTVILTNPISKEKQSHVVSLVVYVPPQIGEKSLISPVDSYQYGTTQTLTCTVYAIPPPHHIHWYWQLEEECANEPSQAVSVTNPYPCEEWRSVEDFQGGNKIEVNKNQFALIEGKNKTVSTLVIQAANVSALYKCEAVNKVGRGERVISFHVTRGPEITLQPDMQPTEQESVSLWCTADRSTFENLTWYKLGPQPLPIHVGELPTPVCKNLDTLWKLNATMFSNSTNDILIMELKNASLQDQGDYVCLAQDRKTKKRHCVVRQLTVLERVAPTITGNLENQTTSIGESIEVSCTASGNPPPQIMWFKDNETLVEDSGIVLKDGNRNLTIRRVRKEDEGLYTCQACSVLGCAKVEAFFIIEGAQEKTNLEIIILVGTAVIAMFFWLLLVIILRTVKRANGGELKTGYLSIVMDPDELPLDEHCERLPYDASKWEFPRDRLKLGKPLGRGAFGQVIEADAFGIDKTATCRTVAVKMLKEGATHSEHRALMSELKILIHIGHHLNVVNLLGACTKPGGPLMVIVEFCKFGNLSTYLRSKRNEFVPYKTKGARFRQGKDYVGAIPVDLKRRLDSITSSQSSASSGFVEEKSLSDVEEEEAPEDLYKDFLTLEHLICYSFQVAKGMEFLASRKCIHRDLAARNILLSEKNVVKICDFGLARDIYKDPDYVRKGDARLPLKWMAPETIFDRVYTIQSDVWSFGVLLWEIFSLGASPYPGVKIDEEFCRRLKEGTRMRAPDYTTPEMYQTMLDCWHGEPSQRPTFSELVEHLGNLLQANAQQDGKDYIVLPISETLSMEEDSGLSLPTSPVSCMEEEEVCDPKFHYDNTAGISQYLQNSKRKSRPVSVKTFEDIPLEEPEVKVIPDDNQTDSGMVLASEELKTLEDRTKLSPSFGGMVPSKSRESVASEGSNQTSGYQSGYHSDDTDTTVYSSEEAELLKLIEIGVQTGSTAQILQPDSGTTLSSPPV
Sequence of Blk (P51451 whole entry): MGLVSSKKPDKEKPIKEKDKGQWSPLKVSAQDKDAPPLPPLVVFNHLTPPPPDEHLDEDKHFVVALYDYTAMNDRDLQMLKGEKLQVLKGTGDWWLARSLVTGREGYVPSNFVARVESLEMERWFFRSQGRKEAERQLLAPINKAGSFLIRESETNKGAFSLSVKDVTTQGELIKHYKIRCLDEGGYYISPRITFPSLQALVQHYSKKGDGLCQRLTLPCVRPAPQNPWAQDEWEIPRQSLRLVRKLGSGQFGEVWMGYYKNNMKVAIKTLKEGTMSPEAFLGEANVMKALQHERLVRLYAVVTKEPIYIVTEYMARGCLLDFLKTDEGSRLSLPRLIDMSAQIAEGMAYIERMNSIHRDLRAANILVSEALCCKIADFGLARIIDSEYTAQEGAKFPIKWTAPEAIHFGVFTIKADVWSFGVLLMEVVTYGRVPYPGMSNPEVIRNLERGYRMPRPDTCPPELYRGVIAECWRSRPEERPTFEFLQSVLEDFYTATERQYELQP
Sequence of B-Raf (P15056 whole entry): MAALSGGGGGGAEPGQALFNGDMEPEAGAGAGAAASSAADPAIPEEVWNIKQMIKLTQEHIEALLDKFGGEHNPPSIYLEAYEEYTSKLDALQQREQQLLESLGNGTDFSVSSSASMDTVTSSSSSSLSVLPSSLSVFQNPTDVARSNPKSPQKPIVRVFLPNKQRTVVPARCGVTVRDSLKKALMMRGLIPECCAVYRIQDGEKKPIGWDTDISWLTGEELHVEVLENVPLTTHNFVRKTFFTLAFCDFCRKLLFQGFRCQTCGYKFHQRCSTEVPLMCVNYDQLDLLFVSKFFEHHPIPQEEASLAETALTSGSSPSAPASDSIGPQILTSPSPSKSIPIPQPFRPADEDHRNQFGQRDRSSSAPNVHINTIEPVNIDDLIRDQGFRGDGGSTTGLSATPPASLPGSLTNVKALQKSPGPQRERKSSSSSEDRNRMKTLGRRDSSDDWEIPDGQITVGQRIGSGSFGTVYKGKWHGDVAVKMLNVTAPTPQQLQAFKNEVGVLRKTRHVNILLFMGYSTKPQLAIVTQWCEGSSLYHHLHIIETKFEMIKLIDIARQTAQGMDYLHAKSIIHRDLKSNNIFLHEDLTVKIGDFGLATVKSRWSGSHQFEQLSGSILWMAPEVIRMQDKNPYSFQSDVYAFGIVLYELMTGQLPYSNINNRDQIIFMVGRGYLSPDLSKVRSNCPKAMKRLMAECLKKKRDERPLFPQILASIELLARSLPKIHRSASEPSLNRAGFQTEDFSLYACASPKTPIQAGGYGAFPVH
Sequence of Fyn (P06241 whole entry): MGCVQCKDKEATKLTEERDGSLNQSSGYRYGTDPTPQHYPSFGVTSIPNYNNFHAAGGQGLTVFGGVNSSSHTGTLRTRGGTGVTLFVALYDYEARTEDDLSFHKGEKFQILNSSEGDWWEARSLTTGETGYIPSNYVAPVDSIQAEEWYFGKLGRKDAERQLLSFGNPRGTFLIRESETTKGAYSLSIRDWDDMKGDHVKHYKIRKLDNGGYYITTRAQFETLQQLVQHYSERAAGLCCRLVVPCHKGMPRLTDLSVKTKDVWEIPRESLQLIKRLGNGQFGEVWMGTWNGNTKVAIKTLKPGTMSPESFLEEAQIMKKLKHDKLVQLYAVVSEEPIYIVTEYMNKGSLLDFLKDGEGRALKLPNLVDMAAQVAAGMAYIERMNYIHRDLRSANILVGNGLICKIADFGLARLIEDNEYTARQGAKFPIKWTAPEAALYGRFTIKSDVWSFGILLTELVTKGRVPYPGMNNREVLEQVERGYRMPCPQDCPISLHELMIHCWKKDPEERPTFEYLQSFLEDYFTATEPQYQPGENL
Sequence of EphB2 (P29323 19-1055): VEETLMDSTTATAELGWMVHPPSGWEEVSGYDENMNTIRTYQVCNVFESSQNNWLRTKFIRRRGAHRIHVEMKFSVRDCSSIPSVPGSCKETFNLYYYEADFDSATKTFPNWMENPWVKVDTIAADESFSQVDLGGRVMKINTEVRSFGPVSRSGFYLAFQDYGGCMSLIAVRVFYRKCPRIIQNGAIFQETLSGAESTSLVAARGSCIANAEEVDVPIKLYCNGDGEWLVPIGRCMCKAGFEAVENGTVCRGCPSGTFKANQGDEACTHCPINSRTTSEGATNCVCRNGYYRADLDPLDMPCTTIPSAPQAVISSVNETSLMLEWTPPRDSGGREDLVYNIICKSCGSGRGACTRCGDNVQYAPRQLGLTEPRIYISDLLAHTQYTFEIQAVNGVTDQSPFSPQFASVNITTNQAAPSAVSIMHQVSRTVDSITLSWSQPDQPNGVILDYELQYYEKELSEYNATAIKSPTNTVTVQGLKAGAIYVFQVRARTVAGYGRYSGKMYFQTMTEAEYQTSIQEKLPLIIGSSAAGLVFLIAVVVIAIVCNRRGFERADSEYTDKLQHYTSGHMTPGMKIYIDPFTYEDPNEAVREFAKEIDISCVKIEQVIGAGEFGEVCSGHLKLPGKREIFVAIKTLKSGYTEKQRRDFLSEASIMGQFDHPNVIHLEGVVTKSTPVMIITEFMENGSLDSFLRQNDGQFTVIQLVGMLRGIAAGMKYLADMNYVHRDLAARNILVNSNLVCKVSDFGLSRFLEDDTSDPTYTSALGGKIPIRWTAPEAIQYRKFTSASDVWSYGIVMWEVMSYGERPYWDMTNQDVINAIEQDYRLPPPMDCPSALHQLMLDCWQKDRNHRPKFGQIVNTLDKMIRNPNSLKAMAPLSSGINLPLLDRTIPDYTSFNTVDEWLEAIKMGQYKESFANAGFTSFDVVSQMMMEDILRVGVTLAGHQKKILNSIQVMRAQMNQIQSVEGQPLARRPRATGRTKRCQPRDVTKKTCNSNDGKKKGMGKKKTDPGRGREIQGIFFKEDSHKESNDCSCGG
Sequence of c-Src(T341M) (P12931 whole entry T341M, looked up): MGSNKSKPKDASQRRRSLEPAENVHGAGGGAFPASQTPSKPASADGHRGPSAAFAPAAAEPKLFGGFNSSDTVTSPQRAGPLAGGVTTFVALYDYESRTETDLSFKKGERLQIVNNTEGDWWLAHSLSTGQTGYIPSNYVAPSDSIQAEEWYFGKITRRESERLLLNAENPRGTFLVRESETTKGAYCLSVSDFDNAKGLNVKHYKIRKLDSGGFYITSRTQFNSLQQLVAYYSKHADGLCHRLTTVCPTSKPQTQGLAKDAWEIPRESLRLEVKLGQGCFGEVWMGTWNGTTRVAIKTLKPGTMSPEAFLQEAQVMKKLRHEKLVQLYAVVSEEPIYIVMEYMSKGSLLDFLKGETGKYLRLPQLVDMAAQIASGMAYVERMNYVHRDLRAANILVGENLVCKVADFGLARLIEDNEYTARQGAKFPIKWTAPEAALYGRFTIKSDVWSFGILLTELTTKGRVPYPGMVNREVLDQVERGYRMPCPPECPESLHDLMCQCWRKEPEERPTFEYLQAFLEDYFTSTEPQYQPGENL

remaining activity at 10 µM (ErbB2; compound at 10 μM): 2% | IC50 (ErbB2): 251 nM | IC50 (SW1990): 206 nM | IC50 (MDA-MB-231; [1]): 15.3 nM | IC50 (MDA-MB-231; [2]): < 100 nM | remaining activity at 10 µM (IKKβ; compound at 10 μM): 42% | remaining activity at 10 µM (Fer(h); compound at 10 μM): 92% | IC50 (MDA-MB-435; [1]): 14.7 nM | IC50 (MDA-MB-435; [3]): < 100 nM | The percentage of the remaining active protein (MAPK1(h); compound at 10 μM): 66% | IC50 (A375): 26.6 nM | IC50 (MDA-MB-468): 3220 nM | remaining activity at 10 µM (ARK5(h); compound at 10 μM): 115% | remaining activity at 10 µM (PKCα(h); compound at 10 μM): 92% | remaining activity at 10 µM (EphA8(h); compound at 10 μM): -4% | remaining activity at 10 µM (RIPK2(h); compound at 10 μM): 15% | remaining activity at 10 µM (ALK(h); compound at 10 μM): 33% | IC50 (Miapaca-2): 40.4 nM | remaining activity at 10 µM (PKA(h); compound at 10 μM): 58% | remaining activity at 10 µM (Fms(h); compound at 10 μM): 1% | IC50 (c-Src(T341M); c-Src(T341M), ATP at Km): 3730 nM | IC50 (HepG2): 6170 nM | remaining activity at 10 µM (EphB2; compound at 10 μM): -1% | IC50 (EphB2): 10 nM | remaining activity at 10 µM (Itk(h); compound at 10 μM): 92% | remaining activity at 10 µM (CDK7; CDK7, compound at 10 μM): 70% | remaining activity at 10 µM (KDR; compound at 10 μM): 3% | IC50 (KDR; KDR, ATP at Km): 12 nM | IC50 (B-Raf; B-Raf, ATP at Km): 22 nM | remaining activity at 10 µM (B-Raf): 1% | remaining activity at 10 µM (Fyn; compound at 10 μM): -1% | IC50 (Fyn): 3 nM | remaining activity at 10 µM (FGFR1; compound at 10 μM): 0% | remaining activity at 10 µM (mTOR(h); compound at 10 μM): 81% | remaining activity at 10 µM (JAK3(h); compound at 10 μM): 29% | remaining activity at 10 µM (JNK1α1(h); compound at 10 μM): 36% | remaining activity at 10 µM (Blk; compound at 10 μM): -1% | IC50 (Blk; Blk, ATP at Km): 12 nM
SMILES: Cc1ccc(NC(=O)c2cccc(C(F)(F)F)c2)cc1C#Cc1nn(C2CCN(C)CC2)c2ncnc(N)c12 [Compound 31]
IC50 (plc/prf/5): 3970 nM

remaining activity at 10 µM (ErbB2; 10 μM): 4% | IC50 (ErbB2): 165 nM | IC50 (MDA-MB-231; [1]): 30 nM | IC50 (MDA-MB-231; [2]): < 100 nM | remaining activity at 10 µM (IKKβ; 10 μM): 33% | remaining activity at 10 µM (Fer(h); 10 μM): 67% | IC50 (MDA-MB-435; [3]): < 100 nM | The percentage of the remaining active protein (MAPK1(h); 10 μM): 87% | IC50 (A375): ~30 nM | remaining activity at 10 µM (ARK5(h); 10 μM): 108% | remaining activity at 10 µM (PKCα(h); 10 μM): 110% | remaining activity at 10 µM (EphA8(h); 10 μM): 2% | remaining activity at 10 µM (RIPK2(h); 10 μM): 21% | remaining activity at 10 µM (ALK(h); 10 μM): 92% | IC50 (Miapaca-2): < 600 nM | remaining activity at 10 µM (PKA(h); 10 μM): 60% | remaining activity at 10 µM (Fms(h); 10 μM): 4% | remaining activity at 10 µM (c-Src(T341M); Src(T341M)(h), 10 μM, read-out: The percentage of the remaining active protein): 20% | IC50 (HepG2): ~10000 nM | remaining activity at 10 µM (EphB2; 10 μM): -1% | IC50 (EphB2): 33 nM | remaining activity at 10 µM (Itk(h); 10 μM): 102% | IC50 (RAMOS): ~10000 nM | remaining activity at 10 µM (CDK7; CDK7/cyclinH/MAT1(h), 10 μM): 103% | remaining activity at 10 µM (KDR; 10 μM): 2% | remaining activity at 10 µM (B-Raf): 7% | remaining activity at 10 µM (Fyn; 10 μM): 0% | IC50 (Fyn): 6 nM | remaining activity at 10 µM (FGFR1; 10 μM): 1% | remaining activity at 10 µM (Abl): -3% | remaining activity at 10 µM (mTOR(h); 10 μM): 101% | remaining activity at 10 µM (JAK3(h); 10 μM): 7% | remaining activity at 10 µM (JNK1α1(h); 10 μM): 35% | remaining activity at 10 µM (Blk; 10 μM): 0%
SMILES: Cc1ccc(NC(=O)c2ccc(C)c(C(F)(F)F)c2)cc1C#Cc1nn([C@H]2CC[C@H](O)CC2)c2ncnc(N)c12 [Compound 93]
IC50 (plc/prf/5): ~10000 nM
